From patent US20030152647A1, “Safe botanical drug for treating malignant pleural effusion and cancer and increasing immune function” (priority 2002, published 2003)

Test system: peritoneal macrophage
Assay: Phagocytosis of peritoneal macrophage in mice
Assay type: in vivo
Conditions: drugs subcutaneously daily for 7 days
Protocol: Added 0.02 ml of 5% washed chick red blood cell suspension to 0.5 ml of the peritoneal exudate, shaken gently to mix and incubated at 37° C. for 5 minutes. Dipped two coverslips, closed to each other, in the above mixture and incubate for 30 minutes for the migration of the macrophages along the coverslips then fixed and stained with Sharma stain. Examined microscopically for: Phagocytic rate—number of macrophages with phagocytized chick red blood cells per 100 macrophages counted.
Method of animal model was regular. The drugs were injected subcutaneously daily for 7 days.

For `O=P1(N(CCCl)CCCl)NCCCO1` (stereo not shown) [CY, Cyclophosphamide], the “Phagocytic rate (x + SD, %)” value was 7.52 ± 0.46%.
